{
  "source": "patent US12697326B2",
  "about": "“Methods of treating hepatic encephalopathy” (SALIX PHARMACEUTICALS, INC., priority 2008, dated 2026)",
  "assay_type_in_all_cases": "in vivo, human",
  "key": {"[1]": {"test_system": "Conn score in subjects with HE", "experiment": "Level of change from baseline in Conn score by treatment group, first study", "conditions": "550 mg BID, Baseline to EOT", "from_the_text": "The scale used in the Conn scoring system is provided below. • Grade 0=No personality or behavioral abnormality detected • Grade 1=Trivial lack of awareness, euphoria or anxiety; shortened attention span; impairment of addition or subtraction • Grade 2=Lethargy; disorientation for time; obvious personality change; inappropriate behavior • Grade 3=Somnolence to semi-stupor, responsive to stimuli; confused; gross disorientation; bizarre behavior • Grade 4=Coma; unable to test mental state\nChange in mental status was measured by the Conn score (also known as the West Haven score). The Conn score has been widely used as a measure of mental state in HE studies and is based on the criteria of Parsons-Smith as modified by Conn. The scale used in the Conn scoring system is described above."}, "subjects with HE": {"test_system": "subjects with HE", "experiment": "Treatment-emergent adverse events, first study", "conditions": "rifaximin group", "from_the_text": "A total of 79.9% of subjects (239 of 299) experienced TEAEs during the course of the study."}, "[2]": {"test_system": "asterixis grade in subjects with HE", "experiment": "Time to any increase from baseline in asterixis grade, first study", "conditions": "for Probability of no increase in asterixis grade: Kaplan-Meier estimate, ITT; for Probability of no increase in asterixis grade / Cummulative number of events (increase in asterixis grade) / Number of events (increase in asterixis grade): Rifaximin N = 140; for Cummulative number of events (increase in asterixis grade) / Number of events (increase in asterixis grade): ITT population", "procedure": "Asterixis (flapping tremor) was determined with the subject holding both arms and forearms extended with wrists dorsiflexed and fingers open for ≥30 seconds. Asterixis was measured on a continuum of 5 grades, e.g., grades 0 and 4=no abnormal movement vs. almost continuous flapping motions, respectively as shown below: • Grade 0=No tremors; • Grade 1=Rare flapping motions; • Grade 2=Occasional, irregular flaps; • Grade 3=Frequent flaps; and • Grade 4=Almost continuous flapping motions.\nEfficacy in regard to asterixis grade was measured as time to any increase from baseline in asterixis grade.\nFIG. 12 illustrates time to any increase from baseline in asterixis grade by treatment group in the ITT population in the first study. Table 21 presents estimates of the proportions of subjects who had any increase in asterixis grade over the course of the Treatment Period and results of statistical analyses. Subjects who discontinued prior to experiencing an increase in asterixis grade and prior to completion of the 6-month treatment period were censored at the time of discontinuation."}, "[3]": {"test_system": "liver transplant patients with HE", "experiment": "Chart review of 39 liver transplant patients with HE Conn scores of 2", "conditions": "24 lactulose, 15 rifaximin"}, "[4]": {"conditions": "Treatment interval 0 to <28 days"}, "[5]": {"conditions": "Treatment interval 28 to <56 days"}, "[6]": {"conditions": "Treatment interval 56 to <84 days"}, "[7]": {"conditions": "Treatment interval 84 to <140 days"}, "[8]": {"conditions": "Treatment interval 140 to <168 days"}, "[9]": {"conditions": "any increase from baseline in asterixis grade, 550 mg BID, N = 140, Days >=168"}, "[10]": {"conditions": "any increase from baseline in asterixis grade; 550 mg BID; N = 140; Days [0-28)"}, "[11]": {"conditions": "any increase from baseline in asterixis grade; 550 mg BID; N = 140; Days [28-56)"}, "[12]": {"conditions": "any increase from baseline in asterixis grade; 550 mg BID; N = 140; Days [56-84)"}, "[13]": {"conditions": "any increase from baseline in asterixis grade; 550 mg BID; N = 140; Days [84-140)"}, "[14]": {"conditions": "any increase from baseline in asterixis grade; 550 mg BID; N = 140; Days [140-168)"}},
  "data": [
    {"smiles": "CO[C@H]1/C=C/O[C@@]2(C)Oc3c(C)c(O)c4c(O)c(c5c(nc6cc(C)ccn65)c4c3C2=O)NC(=O)/C(C)=C\\C=C\\[C@H](C)[C@H](O)[C@@H](C)[C@@H](O)[C@@H](C)[C@H](OC(C)=O)[C@@H]1C", "note": "[Rifaximin]", "values": [
      {"measurement": "Change from baseline in Conn score, Max", "setting": "[1]", "result": 2},
      {"measurement": "Change from baseline in Conn score, Mean", "setting": "[1]", "result": "−0.1"},
      {"measurement": "Change from baseline in Conn score, Median", "setting": "[1]", "result": 0.0},
      {"measurement": "Change from baseline in Conn score, Min", "setting": "[1]", "result": "−1"},
      {"measurement": "Number of subjects with change from baseline in Conn score of 0", "setting": "[1]; n = 139", "result": 101},
      {"measurement": "Number of subjects with change from baseline in Conn score of 1", "setting": "[1]; n = 139", "result": 10},
      {"measurement": "Number of subjects with change from baseline in Conn score of 2", "setting": "[1]; n = 139", "result": 2},
      {"measurement": "Number of subjects with change from baseline in Conn score of 3", "setting": "[1]; n = 139", "result": 0},
      {"measurement": "Number of subjects with change from baseline in Conn score of −1", "setting": "[1]; n = 139", "result": 26},
      {"measurement": "Percent of subjects with change from baseline in Conn score of 0", "setting": "[1]; n = 139", "result": 72.7, "unit": "%"},
      {"measurement": "Percent of subjects with change from baseline in Conn score of 1", "setting": "[1]; n = 139", "result": 7.2, "unit": "%"},
      {"measurement": "Percent of subjects with change from baseline in Conn score of 2", "setting": "[1]; n = 139", "result": 1.4, "unit": "%"},
      {"measurement": "TEAE ascites, subjects", "setting": "subjects with HE", "result": 11.4, "unit": "%"},
      {"measurement": "TEAE diarrhea, subjects", "setting": "subjects with HE", "result": 10.7, "unit": "%"},
      {"measurement": "TEAE dizziness, subjects", "setting": "subjects with HE", "result": 12.9, "unit": "%"},
      {"measurement": "TEAE fatigue, subjects", "setting": "subjects with HE", "result": 12.1, "unit": "%"},
      {"measurement": "TEAE headache, subjects", "setting": "subjects with HE", "result": 10, "unit": "%"},
      {"measurement": "TEAE nausea, subjects", "setting": "subjects with HE", "result": 14.3, "unit": "%"},
      {"measurement": "TEAE peripheral edema, subjects", "setting": "subjects with HE", "result": 15, "unit": "%"},
      {"measurement": "Probability of no increase in asterixis grade", "setting": "[2]; [4]", "result": 1.0000},
      {"measurement": "Cummulative number of events (increase in asterixis grade)", "setting": "[2]; [4]", "result": 13},
      {"measurement": "Probability of no increase in asterixis grade", "setting": "[2]; [5]", "result": 0.9048},
      {"measurement": "Cummulative number of events (increase in asterixis grade)", "setting": "[2]; [5]", "result": 20},
      {"measurement": "Number of events (increase in asterixis grade)", "setting": "[2]; [5]", "result": 7},
      {"measurement": "Probability of no increase in asterixis grade", "setting": "[2]; [6]", "result": 0.8499},
      {"measurement": "Cummulative number of events (increase in asterixis grade)", "setting": "[2]; [6]", "result": 27},
      {"measurement": "Number of events (increase in asterixis grade)", "setting": "[2]; [6]", "result": 7},
      {"measurement": "Probability of no increase in asterixis grade", "setting": "[2]; [7]", "result": 0.7910},
      {"measurement": "Cummulative number of events (increase in asterixis grade)", "setting": "[2]; [7]", "result": 30},
      {"measurement": "Number of events (increase in asterixis grade)", "setting": "[2]; [7]", "result": 3},
      {"measurement": "Probability of no increase in asterixis grade", "setting": "[2]; [8]", "result": 0.7637},
      {"measurement": "Cummulative number of events (increase in asterixis grade)", "setting": "[2]; [8]", "result": 31},
      {"measurement": "Number of events (increase in asterixis grade)", "setting": "[2]; [8]", "result": 1},
      {"measurement": "Probability of no increase in asterixis grade", "setting": "[2]; Treatment interval ≥168 days", "result": 0.7534},
      {"measurement": "Cummulative number of events (increase in asterixis grade)", "setting": "[2]; Treatment interval ≥168 days", "result": 32},
      {"measurement": "Number of events (increase in asterixis grade)", "setting": "[2]; Treatment interval ≥168 days", "result": 1},
      {"measurement": "Cumulative Occurrences of Events", "setting": "[2]; [9]", "result": 32},
      {"measurement": "Occurrences of Events", "setting": "[2]; [9]", "result": 1},
      {"measurement": "Cumulative Occurrences of Events", "setting": "[2]; [10]", "result": 13},
      {"measurement": "Occurrences of Events", "setting": "[2]; [10]", "result": 13},
      {"measurement": "Cumulative Occurrences of Events", "setting": "[2]; [11]", "result": 20},
      {"measurement": "Occurrences of Events", "setting": "[2]; [11]", "result": 7},
      {"measurement": "Cumulative Occurrences of Events", "setting": "[2]; [12]", "result": 27},
      {"measurement": "Occurrences of Events", "setting": "[2]; [12]", "result": 7},
      {"measurement": "Cumulative Occurrences of Events", "setting": "[2]; [13]", "result": 30},
      {"measurement": "Occurrences of Events", "setting": "[2]; [13]", "result": 3},
      {"measurement": "Cumulative Occurrences of Events", "setting": "[2]; [14]", "result": 31},
      {"measurement": "Occurrences of Events", "setting": "[2]; [14]", "result": 1},
      {"measurement": "subjects with increases in asterixis grade (of 140)", "setting": "[2]; first study, rifaximin group", "result": 32},
      {"measurement": "time to first increase in Asterixis grade vs placebo (FIG. 5, Kaplan Meier)", "setting": "[2]; in vivo", "result": "increased time to the first increase in Asterixis grade"},
      {"measurement": "hospitalizations reported for the group", "setting": "[3]", "result": 3}
    ]}
  ]
}
